{"source": "patent US8349791B2", "about": "“Polypeptides that bind membrane proteins” (The Trustees of the University of Pennsylvania, priority 2006, dated 2013)", "key": {"αVβ3": {"molecular_target": "T1, αVβ3 (Homo sapiens, UniProt P06756)", "T1 construct": "Platelets express a second integrin with a β3 subunit, αVβ3; endogenous in cells; host or cells: gel-filtered human platelets", "T1 sequence (P06756 891-1048 limits assumed)": "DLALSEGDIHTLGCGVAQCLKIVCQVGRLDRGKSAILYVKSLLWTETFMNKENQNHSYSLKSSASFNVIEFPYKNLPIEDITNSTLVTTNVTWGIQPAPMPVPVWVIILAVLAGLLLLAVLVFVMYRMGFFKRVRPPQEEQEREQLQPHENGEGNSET", "T1 sequence (P06756 31-889 partner limits assumed)": "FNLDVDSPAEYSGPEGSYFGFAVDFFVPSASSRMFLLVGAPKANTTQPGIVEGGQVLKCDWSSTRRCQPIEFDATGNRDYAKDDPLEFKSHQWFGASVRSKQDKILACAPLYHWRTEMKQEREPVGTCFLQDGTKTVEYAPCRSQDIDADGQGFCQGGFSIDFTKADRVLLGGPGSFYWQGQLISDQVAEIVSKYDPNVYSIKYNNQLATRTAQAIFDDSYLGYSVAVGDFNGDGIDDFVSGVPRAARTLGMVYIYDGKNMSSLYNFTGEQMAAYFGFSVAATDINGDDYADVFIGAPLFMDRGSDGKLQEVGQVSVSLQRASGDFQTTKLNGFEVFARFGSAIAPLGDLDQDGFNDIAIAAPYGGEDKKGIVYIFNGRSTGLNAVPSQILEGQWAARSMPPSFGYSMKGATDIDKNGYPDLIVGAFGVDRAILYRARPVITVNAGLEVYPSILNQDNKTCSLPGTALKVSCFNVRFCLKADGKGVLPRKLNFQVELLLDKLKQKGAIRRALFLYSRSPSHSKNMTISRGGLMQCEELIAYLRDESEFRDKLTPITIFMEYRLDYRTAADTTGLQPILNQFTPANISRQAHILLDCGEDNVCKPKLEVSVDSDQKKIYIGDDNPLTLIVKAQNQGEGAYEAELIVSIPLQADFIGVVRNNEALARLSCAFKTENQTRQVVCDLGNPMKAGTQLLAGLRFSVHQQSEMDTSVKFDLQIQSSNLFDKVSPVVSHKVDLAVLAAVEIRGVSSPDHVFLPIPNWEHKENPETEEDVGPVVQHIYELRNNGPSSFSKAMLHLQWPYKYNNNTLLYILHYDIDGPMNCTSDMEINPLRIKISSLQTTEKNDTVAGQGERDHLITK", "T1 sequence (P05106 27-788 partner)": "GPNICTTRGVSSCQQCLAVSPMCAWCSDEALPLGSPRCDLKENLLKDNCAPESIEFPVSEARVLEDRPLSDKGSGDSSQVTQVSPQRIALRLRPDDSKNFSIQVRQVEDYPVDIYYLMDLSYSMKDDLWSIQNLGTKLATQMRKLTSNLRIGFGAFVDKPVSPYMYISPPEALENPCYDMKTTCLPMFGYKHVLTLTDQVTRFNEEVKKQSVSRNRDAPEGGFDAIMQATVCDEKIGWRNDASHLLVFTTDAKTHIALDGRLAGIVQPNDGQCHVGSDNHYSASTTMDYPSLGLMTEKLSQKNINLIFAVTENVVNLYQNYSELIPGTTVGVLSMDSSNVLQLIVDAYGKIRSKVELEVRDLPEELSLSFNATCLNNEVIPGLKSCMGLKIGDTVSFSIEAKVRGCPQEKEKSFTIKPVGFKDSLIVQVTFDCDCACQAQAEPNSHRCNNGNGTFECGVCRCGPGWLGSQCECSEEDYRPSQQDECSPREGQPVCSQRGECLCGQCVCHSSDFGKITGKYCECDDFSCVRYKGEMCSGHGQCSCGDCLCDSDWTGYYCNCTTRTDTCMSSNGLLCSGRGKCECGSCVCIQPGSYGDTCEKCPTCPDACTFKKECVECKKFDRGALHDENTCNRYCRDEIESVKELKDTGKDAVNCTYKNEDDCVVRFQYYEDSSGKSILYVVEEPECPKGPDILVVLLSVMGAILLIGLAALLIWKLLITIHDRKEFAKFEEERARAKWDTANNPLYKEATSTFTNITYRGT", "experiment": "Force spectroscopy (laser tweezers), platelets and osteopontin-coated beads", "assay_type": "cell-based", "excerpt": "Litvinov R I et al. Proc. Natl. Acad. Sci. USA. 99, 7426-31 (2002). Recombinant human OPN, prepared as previously described (Bennett J S et al. J. Biol. Chem. 272, 8137-40 (1997)) or purified human fibrinogen was covalently bound to 0.93 μm carboxylate-modified latex beads. Individual cells, trapped from a suspension of gel filtered human platelets or CHO cells, were manually attached to 5 μm diameter silica pedestals coated with polylysine. An OPN- or fibrinogen-coated bead, trapped by the laser light, was then brought into proximity of an immobilized cell, oscillated at 50 Hz, and then brought into repeated intermittent contact with the cell by micromanipulation. Data collection was initiated at the first contact between the bead and the cell. Rupture forces following repeated contacts were collected for periods of several seconds to one minute. Individual forces measured during each contact-detachment cycle were collected into 10 pN-wide bins. The number of events in each bin was then plotted against the average force for that bin after normalizing for the total number of interaction cycles. Thus, the percentage of events in a particular force range (bin) represents the probability of rupture events at that tension. Optical artifacts observed with or without trapped latex beads produce signals that appeared as forces below 10 pN. Therefore, rupture forces in this range were not considered when the data were analyzed. The polypeptide was added from a DMSO solution such that the final concentration of DMSO was no greater than 0.5%. All controls also had 0.5% DMSO in the buffer.\nPlatelets express a second integrin with a β3 subunit, αVβ3, which can bind the matrix protein osteopontin when platelets are stimulated by Mn^2+ or ADP. Bennett J S et al. J. Biol. Chem. 272, 8137-8140 (1997). To test the ability of anti-αIIb to discriminate between αIIbβ3 and αVβ3, the rupture force between platelets and osteopontin-coated beads in the presence and absence of anti-αIIb was measured."}, "αIIb TM domain": {"molecular_target": "T2, αIIb TM domain (Homo sapiens, UniProt P08514)", "T2 construct": "expressed in transfected cells; host or cells: E. coli MM39, pDNToxR-Duet", "T2 sequence (P08514 with tags, fused parts or gaps limits assumed)": "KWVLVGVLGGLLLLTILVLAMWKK", "experiment": "DN-TOXCAT heterodimerization", "assay_type": "cell-based", "conditions": "coexpressed in bacterial membranes", "experimental": "Both the affinity and specificity of the membrane protein-binding peptides for their targets when coexpressed in bacterial membranes were assessed with a DN-“TOXCAT” assay (FIGS. 3a-3c). In TOXCAT, a TM sequence of interest is fused to a ToxR protein (TM-ToxR) that binds to the ctx promoter as a dimer, which induces expression of chloramphenicol acetyltransferase (CAT) (W. P. Russ, D. M. Engelman, Proc. Natl. Acad. Sci. U.S.A. 96, 863 (1999); D. Langosch, B. Brosig, H. Kolmar, H. J. Fritz, J. Mol. Biol. 263, 525 (1996)). In the DN assay, the TM1-ToxR fusion protein is coexpressed with a second fusion protein (TM2-ToxR*) containing a nonfunctional mutant of the ToxR domain. TM-driven dimerization leads to a ToxR-ToxR* dimer that is unable to bind the ctx promoter or to induce CAT synthesis (FIG. 3a). The resulting decrease in CAT activity can be used to monitor the formation of a heterodimeric TM complex. […]\nMutants were generated using the QuikChange site-directed mutagenesis kit (Stratagene). […] In order to quantify the effects of mutations to anti-αIIb on the change in heterodimerization relative to wild-type anti-αIIb, a disruption index (or % disruption of heterodimerization) was calculated from the data as follows: […]"}}, "note": "Peptide text beside a SMILES is read from it.", "data": [{"compound": "AYVFILLSFILGTLLGFLVMFWA [anti-αV]", "values": [{"measurement": "peak of rupture force between platelets and osteopontin-coated beads", "setting": "αVβ3", "value": 40, "unit": "pN"}, {"measurement": "rupture force peak in the presence of αvβ3 antagonist XJ735", "setting": "αVβ3", "value": "not present"}]}, {"compound": "CC[C@H](C)[C@H](NC(=O)[C@H](Cc1ccccc1)NC(=O)[C@H](Cc1ccccc1)NC(=O)[C@@H]1CCCN1C(=O)[C@H](CC(C)C)NC(=O)[C@H](CC(C)C)NC(=O)[C@H](CCSC)NC(=O)[C@@H](NC(=O)[C@H](Cc1ccc(O)cc1)NC(=O)[C@H](C)NC(=O)[C@H](CCCCN)NC(=O)[C@@H](N)CCCCN)C(C)C)C(=O)NCC(=O)N[C@@H](CC(C)C)C(=O)N[C@@H](CC(C)C)C(=O)N[C@@H](CC(C)C)C(=O)NCC(=O)N[C@@H](CC(C)C)C(=O)N[C@H](C(=O)N[C@@H](Cc1ccccc1)C(=O)NCC(=O)NCC(=O)N[C@@H](C)C(=O)N[C@@H](Cc1ccccc1)C(=O)N[C@@H](Cc1c[nH]c2ccccc12)C(=O)NCC(=O)N1CCC[C@H]1C(=O)N[C@@H](C)C(=O)N[C@@H](CCCNC(=N)N)C(=O)N[C@@H](Cc1c[nH]cn1)C(=O)N[C@@H](CC(C)C)C(=O)N[C@@H](CCCCN)C(=O)N[C@@H](CCCCN)C(N)=O)[C@@H](C)CC", "note": "[anti-αIIb] (H-KKAYVMLLPFFIGLLLGLIFGGAFWGPARHLKK-NH2; N-terminus assumed)", "values": [{"measurement": "CAT signal of anti-αIIb-ToxR with αIIb as the DN partner", "setting": "αIIb TM domain", "value": "strongly attenuated"}, {"measurement": "rupture force, platelets and osteopontin-coated beads", "setting": "αVβ3; 0.5 μM polypeptide", "value": "No peak of rupture force was observed"}]}]}
